From publication PMC5874177 (Journal of the American Chemical Society, 2018)
Read-outs that look alike come from different tables or passages of the source.

Key:
[1] = molecular target: T1, tryptophan 2,3-dioxygenase (TDO) (Homo sapiens, UniProt P48775); assay type: biochemical
[2] = molecular target: T1, tryptophan 2,3-dioxygenase (TDO); assay type: biochemical; remark: listed apart in the source

T1 sequence (P48775 whole entry): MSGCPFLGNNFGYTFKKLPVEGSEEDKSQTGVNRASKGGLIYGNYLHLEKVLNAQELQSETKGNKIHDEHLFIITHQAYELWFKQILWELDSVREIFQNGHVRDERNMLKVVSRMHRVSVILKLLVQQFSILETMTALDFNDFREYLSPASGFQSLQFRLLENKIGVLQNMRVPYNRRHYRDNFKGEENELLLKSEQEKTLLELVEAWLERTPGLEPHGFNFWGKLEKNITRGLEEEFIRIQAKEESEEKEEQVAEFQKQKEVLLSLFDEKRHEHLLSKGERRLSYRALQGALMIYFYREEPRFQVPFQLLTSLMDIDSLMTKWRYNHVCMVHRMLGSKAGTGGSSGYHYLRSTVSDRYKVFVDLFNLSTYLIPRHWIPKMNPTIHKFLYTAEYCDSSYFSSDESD

Ki [1] [µM]	SMILES	Ki [2] [µM]
320 ± 43	CC(Cc1c[nH]c2ccccc12)C(=O)O (centres unmarked) [compound 1, probe 1]	–
–	O=C(O)C(O)Cc1c[nH]c2ccccc12 (centres unmarked) [compound 2, probe 2]	444 ± 32
